Source: patent US9144557B2, “Hematopoietic growth factor mimetic small molecule compounds and their uses” (Ligand Pharmaceuticals Inc., priority 2009, dated 2015)

Test system: UT7/EPO Cell line
Test: Cell Proliferation Assay (UT7/EPO, ViaLight Plus)
Format: cell-based, human
Details: proliferative effect; compounds at 10 uM; UT7/EPO cells starved of EPO overnight; 72 hours at 37° C.; ViaLight Plus kit
Procedure, shortened: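 UT7/EPO human leukemia cells (endogenous EPO receptor, EPO-dependent growth) were EPO-starved overnight, then exposed to compounds at 10 uM for 72 hours at 37° C. Proliferation was read out by ATP-based luminescence (ViaLight Plus).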

SMILES | Activity (%)
Cn1cccc1C(=O)Nc1ccc(Nc2ccc(NC(=O)c3ccc(N4CCC(O)CC4)c(F)c3)cc2)cc1 [Compound 815, N-(4-((4-(3-Fluoro-4-(4-hydroxypiperidin-1-yl)benzamido)phenyl)amino)phenyl)-1-methyl-1H-pyrrole-2-carboxamide] | 17%
CCOC(=O)Cn1c(Cl)ccc1C(=O)Nc1ccc(Nc2ccc(NC(=O)c3ccc(N4CCC(O)CC4)cc3)cc2)cc1 [Compound 830, Ethyl 2-(2-chloro-5-((4-((4-(4-(4-hydroxypiperidin-1-yl)benzamido)phenyl)amino)phenyl)carbamoyl)-1H-pyrrol-1-yl)acetate] | 15%
O=C(Nc1ccc(Nc2ccc(NC(=O)c3cc[nH]c3)cc2)c(F)c1)c1ccc(N2CCC(O)CC2)cc1 [Compound 860, N-(4-((2-Fluoro-4-(4-(4-hydroxypiperidin-1-yl)benzamido)phenyl)amino)phenyl)-1H-pyrrole-3-carboxamide] | 17%
N#Cc1cc(NC(=O)c2ccc(N3CCC(C(F)(F)F)CC3)cc2)ccc1Nc1ccc(NC(=O)c2cc[nH]c2)cc1 [Compound 885, N-(4-((2-Cyano-4-(4-(4-trifluoromethylpiperidin-1-yl)benzamido)phenyl)amino)phenyl)-1H-pyrrole-3-carboxamide] | 21%
CCn1c(C)ccc1C(=O)Nc1ccc(Nc2ccc(NC(=O)c3ccc(N4CCC(O)CC4)cc3)cc2)cc1 [Compound 900] | 24%
Cn1cccc1C(=O)Nc1ccc(Oc2ccc(NC(=O)c3ccc(N4CCC(O)CC4)cc3)cc2)cc1 [Compound 915, N-(4-(4-(4-(4-Hydroxypiperidin-1-yl)benzamido)phenoxy)phenyl)-1-methyl-1H-pyrrole-2-carboxamide] | 17%
Cn1ccc2cc(C(=O)Nc3ccc4c(cnn4-c4ccc(NC(=O)C5CC5)cc4)c3)ccc21 [Compound 930, N-(1-(4-(Cyclopropanecarboxamido)phenyl)-1H-indazol-5-yl)-1-methyl-1H-indole-5-carboxamide] | 12%
O=C(Nc1ccc(N2CCC(O)CC2)cc1)c1ccc2c(cnn2-c2ccc(NC(=O)C3CC3)cc2)c1 [Compound 945, 1-(4-(Cyclopropanecarboxamido)phenyl)-N-(4-(4-hydroxypiperidin-1-yl)phenyl)-1H-indazole-5-carboxamide] | 10%
O=C(Nc1ccc2c(ccn2-c2ccc(C(=O)NC3CC3)cc2)c1)c1ccc2c(ccn2CCN2CCOCC2)c1 [Compound 960, N-(1-(4-(Cyclopropylcarbamoyl)phenyl)-1H-indol-5-yl)-1-(2-morpholinoethyl)-1H-indole-5-carboxamide] | 17%
O=C(O)CNC(=O)Cn1ccc2cc(NC(=O)c3ccc(-n4ccc5cc(NC(=O)c6ccc(N7CCC(O)CC7)cc6)ccc54)cc3)ccc21 [Compound 975] | 17%
O=C(Nc1ccc(-n2ncc3cc(O)ccc32)cc1)c1ccc(N2CCC(O)CC2)cc1 [Compound 990, N-(4-(5-(Hydroxy)-1H-indazol-1-yl)phenyl)-4-(4-hydroxypiperidin-1-yl)benzamide] | 10%
O=C(Nc1ccc2c(cnn2-c2ccc(NC(=O)c3cnc4cc[nH]c4c3)cc2)c1)c1ccc(N2CCC(O)CC2)cc1 [Compound 1005, N-(4-(5-(4-(4-Hydroxypiperidin-1-yl)benzamido)-1H-indazol-1-yl)phenyl)-1H-pyrrolo[3,2-b]pyridine-6-carboxamide] | 13%
CCOC(=O)c1ccc(-n2ncc3cc(NC(=O)c4ccc(N5CCC(O)CC5)cc4)ccc32)cc1 [Compound 1030, Ethyl 4-(5-(4-(4-hydroxypiperidin-1-yl)benzamido)-1H-indazol-1-yl)benzoate] | 10%
N#CCNC(=O)c1ccc(-n2ncc3cc(NC(=O)c4ccc(N5CCC(O)CC5)cc4)ccc32)cc1 [Compound 1045, N-(Cyanomethyl)-4-(5-(4-(4-hydroxypiperidin-1-yl)benzamido)-1H-indazol-1-yl)benzamide] | 15%
O=C(NC1CC1)c1ccc(-n2cnc3cc(NC(=O)c4cc5ccccc5[nH]4)ccc32)cc1 [Compound 1060, N-(1-(4-(Cyclopropylcarbamoyl)phenyl)-1H-benzo[d]imidazol-5-yl)-1H-indole-2-carboxamide] | 18%
Cn1ccc(C(=O)Nc2ccc(-n3cc(C4CC4)c4cc(NC(=O)c5ccc(N6CCC(O)CC6)cc5)ccc43)cc2)c1 [Compound 1070, N-(4-(3-cyclopropyl-5-(4-(4-hydroxypiperidin-1-yl)benzamido)-1H-indol-1-yl)phenyl)-1-methyl-1H-pyrrole-3-carboxamide] | 15%
CN(C)c1ccc(C(=O)Nc2ccc(-c3nc4cc(NC(=O)c5ccc(N(C)C)cc5)ccc4[nH]3)cc2)cc1 [Compound 1700, 4-Dimethylamino-N-(4-(5-(4-dimethylaminobenzamido)-1H-benzimidazol-2-yl)phenyl)benzamide] | 17%
COC(=O)c1ccc(C(=O)Nc2ccc3[nH]c(-c4ccccc4)nc3c2)cc1 [Compound 1705, Methyl 4-(2-phenyl-1H-benzimidazol-5-ylcarbamoyl)-benzoate] | 12%
CN1CCN(c2ccc3nc(-c4ccc5[nH]c(-c6ccccc6)nc5c4)[nH]c3c2)CC1 [Compound 1710, 5-(6-(4-Methylpiperazino)-1H-benzimidazol-2-yl)-2-phenyl-1H-benzimidazole] | 11%
Nc1ccc(C(=O)Nc2ccc(-c3nc4c(Cl)c(NC(=O)c5ccc(N)cc5)ccc4[nH]3)cc2)cc1 [Compound 1715, 4-Amino-N-(4-(5-(4-aminobenzamido)-4-chloro-1H-benzimidazol-2-yl)phenyl)benzamide] | 10%
O=C(O)c1ccc(-c2nc3cc(NC(=O)c4ccc(N5CCCC5)cc4)ccc3[nH]2)cc1 [Compound 1719] | 17%
COc1cccc(C(=O)Nc2ccc3[nH]c(-c4ccccc4)nc3c2)c1 [Compound 1724, 3-Methoxy-N-(2-phenyl-1H-benzimidazol-5-yl)benzamide] | 13%
COc1ccc(-c2nc3cc(NC(=O)c4ccc(-n5cccc5)cc4)ccc3[nH]2)cc1 [Compound 1729, N-(2-(4-Methoxyphenyl)-1H-benzimidazol-5-yl)-4-pyrrolylbenzamide] | 14%
CN(C)c1ccc(C(=O)Nc2ccc3[nH]c(-c4ccc5c(ccn5C)c4)nc3c2)cc1 [Compound 1734, N-(2-(1-Methyl-1H-indol-5-yl)benzimidazol-5-yl)-4-dimethylaminobenzamide] | 20%
COC(=O)c1ccc(C(=O)Nc2ccc3[nH]c(-c4ccc(OC)cc4)nc3c2)cc1 [Compound 1739, Methyl 4-(2-(4-methoxyphenyl)-1H-benzimidazol-5-ylcarbamoyl)-benzoate] | 19%
CN(C)c1ccc(-c2nc3cc(-c4ccc5[nH]c(-c6ccc(N(C)C)cc6)nc5c4)ccc3[nH]2)cc1 [Compound 1744, 4,4′-(5,5′-Bibenzimidazole-2,2′-diyl)bis(N,N-dimethylaniline)] | 11%
O=C(Nc1ccccc1)c1ccc(-c2nc3cc(NC(=O)c4ccccc4)ccc3[nH]2)cc1 [Compound 1747, N-Phenyl-4-(5-benzamido-1H-benzimidazol-2-yl)benzamide] | 19%
